Assays:
MCF-7 cells = experiment: Radiosensitizing activity assay, surviving cells counted by trypan blue staining; type: cell-based, Human
Description: (§1) Biological assay for radiosensitizing activity of MDM2 antagonistic compounds: Human tumor cell lines containing wild-type p53 and low levels of GST, such as MCF7 (breast carcinoma) or mutant p53 and a high GST content, such as MCF7 ADR (adriamycin-resistant breast carcinoma) are cultivated in RPMI medium, supplemented with 10% fetal calf serum to a semi-confluent state.
(§2) In order to determine the radiosensitizing activity of selected compounds on these cells a minimal toxic dose was determined as 2Gy (gray: J/kg) with a ^137Cesium source at room temperature. Following irradiation of monolayer cells in exponential growth phase with 2 Gy, cells were incubated with various concentrations of the selected compounds for 2-6 h. Cells were trypsinized and seeded in appropriate dilutions into 6 well plates. Surviving cells were trypsinized after 12-13 days and cell number was determined by staining with trypane blue for living/dead cells. The protocol was established according to Khil et al., 1996, Int. J. Rad. Oncol. Biol. Phys. 34, 375-380.

HT29 cytosolic GST = HT29 cytosolic GST (Homo sapiens, UniProt P09211); experiment: Spectrophotometric GST activity analysis in HT29 cell extracts (CDNB/glutathione); type: biochemical; settings: HT29 cell extract
Description: GST catalyzes the conjugation of CDNB with glutathione and results in a CDNB-glutathione product with a strong molar absorption at 340 nm. The change of absorption is monitored for 5 min.
1 x 10^6 cells are collected and washed once with ice-cold phosphate-buffered saline at 1000 rpm for 10 min at 4°C. Cell pellets are resuspended in 200 µl ice-cold phosphate-buffered saline, and are sonicated for 2 min on ice. The sonicate is then centrifuged at 11750 g, 4°C for 15 min in an Eppendorf Centrifuge, and the supernatant is assayed for GST activity.

MCF-7 ADR cells = experiment: Radiosensitizing activity assay, surviving cells counted by trypan blue staining; type: cell-based, Human; settings: for radiosensitization: MCF-7 ADR cells (mutant p53, high GST content); for % living cells relative to control without drug treatment: MCF-7ADR
Description: as §1
as §2, with “Following irradiation of monolayer cells in exponential growth phase with 2 Gy, cells were incubated with various concentrations of the selected compounds for 2-6 h.” left out

MDM2 = target: T1, MDM2 (Homo sapiens, UniProt Q00987); experiment: Interaction of compounds with MDM2; type: binding
T1 construct: 40 µl of mdm2 1-213 (100nM in PBST) were mixed with 40 µl of the sample; made in house
Description: BIACORE analysis of the interaction between MDM2 and p53: To quantify the effect of selected compounds on the p53 binding properties of MDM2 protein biosensor measurements using BIACORE 2000 are performed. BIACORE 2000 is a biosensor system delivered from BIACORE AB. The technology of this biosensor is based on the optical phenomenon of surface plasmon resonance (SRP), which detects changes in refractive index of the solution close to the surface of the sensor chip. The refractive index is directly correlated to the mass concentration in the layer and increases when analyte binds to a surface immobilized ligand. Experiments are performed under continuous flow conditions. The SPR response expressed in resonance units (RU) is recorded continuously versus time resulting in a sensorgram. When one interaction is completed, the surface can be regenerated using solutions which remove bound analyte without affecting the activity of the bound ligand. […] After additional 4 minutes rinsing the surface with PBST buffer, a signal was recorded. By comparing the signals of the samples with those of buffer, the inhibitory effects of the samples could be evaluated. […]

[1] = 2 Gy + drug 20 µg/ml, drug incubation time following irradiation 0 hours
[2] = 2 Gy + drug 20 µg/ml, drug incubation time following irradiation 2 hours
[3] = 2 Gy + drug 20 µg/ml, drug incubation time following irradiation 6 hours
[4] = drug alone 20 µg/ml, drug incubation time 0 hours
[5] = drug alone 20 µg/ml, drug incubation time 2 hours
[6] = drug alone 20 µg/ml, drug incubation time 6 hours

HT29 cytosolic GST, sequence (P09211 2-210): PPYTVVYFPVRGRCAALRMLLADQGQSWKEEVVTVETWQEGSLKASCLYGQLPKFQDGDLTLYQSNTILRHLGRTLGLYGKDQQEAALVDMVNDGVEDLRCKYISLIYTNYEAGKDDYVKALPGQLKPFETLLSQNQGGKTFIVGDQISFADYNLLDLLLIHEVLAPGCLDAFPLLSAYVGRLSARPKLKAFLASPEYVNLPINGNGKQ
T1 sequence (Q00987 1-213): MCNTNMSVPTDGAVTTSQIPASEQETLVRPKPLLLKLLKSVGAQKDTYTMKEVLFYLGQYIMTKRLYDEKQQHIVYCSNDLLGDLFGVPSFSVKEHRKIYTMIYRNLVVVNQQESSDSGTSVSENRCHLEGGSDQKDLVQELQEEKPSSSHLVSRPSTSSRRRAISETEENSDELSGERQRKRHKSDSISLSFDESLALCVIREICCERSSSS

Compound | % living cells relative to control without drug treatment (MCF-7 cells; [1]) | % living cells relative to control without drug treatment (MCF-7 cells; [2]) | % living cells relative to control without drug treatment (MCF-7 cells; [3]) | % living cells relative to control without drug treatment (MCF-7 cells; [4]) | % living cells relative to control without drug treatment (MCF-7 cells; [5]) | % living cells relative to control without drug treatment (MCF-7 cells; [6]) | enhancement of irradiation by the drug (factor) (MCF-7 cells; drug incubated for 2 hours) | enhancement of irradiation by the drug (factor) (MCF-7 cells; drug incubated for 6 hours) | radiosensitization (MCF-7 ADR cells) | % living cells relative to control without drug treatment (MCF-7 ADR cells; [1]) | % living cells relative to control without drug treatment (MCF-7 ADR cells; [2]) | % living cells relative to control without drug treatment (MCF-7 ADR cells; [3]) | % living cells relative to control without drug treatment (MCF-7 ADR cells; [4]) | % living cells relative to control without drug treatment (MCF-7 ADR cells; [5]) | % living cells relative to control without drug treatment (MCF-7 ADR cells; [6]) | also measured
O=C(O)COc1ccc(C(=O)/C=C/c2ccc(Cl)c(Cl)c2)cc1 [LSM 83177, 3,4-dichloro-4'-(carboxymethoxy)chalcone] | 100% | 41.8% | 17% | 100% | 64.1% | 36.4% | 1.5 | 2 | Radiosensitizing activity independent of the GST content of the target cell can be observed | 100% | 72.8% | 48.8% | 100% | 87.2% | 85.7% | activity at 0.2 µg/mL (HT29 cytosolic GST; concentration 0,2 µg/ml): 100%; activity at 0.04 µg/mL (HT29 cytosolic GST; concentration 0,04 µg/ml): 100%; activity at 0.4 µg/mL (HT29 cytosolic GST; concentration 0,4 µg/ml): 100%; activity at 1 µg/mL (HT29 cytosolic GST; concentration 1 µg/ml): 100%; activity at 2 µg/mL (HT29 cytosolic GST; concentration 2 µg/ml): 100%; activity at 5 µg/mL (HT29 cytosolic GST; concentration 5 µg/ml): 73%; activity at 8 µg/mL (HT29 cytosolic GST; concentration 8 µg/ml): 46%; activity at 10 µg/mL (HT29 cytosolic GST; concentration 10 µg/ml): 26%; activity at 20 µg/mL (HT29 cytosolic GST; concentration 20 µg/ml): 0%; activity at 1.3 µg/mL (HT29 cytosolic GST; concentration 1,3 µg/ml): 100%; activity at 2.5 µg/mL (HT29 cytosolic GST; concentration 2,5 µg/ml): 95%
C=C(CC)C(=O)c1ccc(OCC(=O)O)c(Cl)c1Cl [ethacrynic acid, reference compound] | 100% | 42.7% | 20.5% | 100% | 52.3% | 43.1% | 1.5 | 2 | does not mediate any radiosensitization | 100% | 82.5% | 133.6% | 100% | 88.9% | 99% | interaction with MDM2 (MDM2): interaction of ethacrynic acid with MDM2 was surprisingly observed
